The source of these data is patent US10428082B2, “Triazole derivatives of melampomagnolide B and methods of use thereof” (BioVentures, LLC, priority 2016, dated 2019).

SMILES strings stand for the structures. Read-outs that look alike come from different tables or passages of the source.

The test system of experiment [1] is NCI panel of 60 human cancer cell lines. The experiment can be described thus: NCI 60 growth inhibition, ranges over groups of cell lines. In kind it is cell-based. The procedure:
The above triazole derivatives of melampomagnolide B were evaluated for growth inhibitory properties against an NCI panel of 60 human cancer cell lines derived from nine human cancer cell types, grouped into disease sub-panels that represent leukemia, lung, colon, central nervous system (CNS), melanoma, renal, ovary, breast, and prostate cancer cells. Growth inhibitory (GI50) effects were measured as a function of the variation of optical density as a percentage of control.

Experiment [2] relates to IGROV1. Briefly: NCI 60 growth inhibition. In kind it is cell-based, human. To be noted: Homo sapiens, IGROV-1; IGROV1, Ovarian Cancer, Table 2.
The test system of experiment [3] is UACC-257. Briefly: NCI 60 growth inhibition. The experiment is classed as cell-based, human. To be noted: Homo sapiens; UACC-257, Melanoma, Table 2.
The subject of experiment [4] is UACC-62. Briefly: NCI 60 growth inhibition. In kind it is cell-based, human. Particulars: Homo sapiens; UACC-62, Melanoma, Table 2.
Experiment [5] has as its system LOX IMVI. The experiment can be described thus: NCI 60 growth inhibition. In kind it is cell-based, human. To be noted: Homo sapiens, Melanoma, Table 2.
The test system of experiment [6] is PC-3. Briefly: NCI 60 growth inhibition. The experiment is classed as cell-based, human. Particulars: Homo sapiens; PC-3, Prostate Cancer, Table 2.
The subject of experiment [7] is U251. The experiment can be described thus: NCI 60 growth inhibition. In kind it is cell-based, human. To be noted: Homo sapiens, U-251; U251, CNS Cancer, Table 2.
Experiment [8] has as its system HT29. The experiment can be described thus: NCI 60 growth inhibition. In kind it is cell-based, human. To be noted: Homo sapiens; HT-29, Colon Cancer, Table 2.
Experiment [9] deals with 786-0. Briefly: NCI 60 growth inhibition. Particulars: Homo sapiens; 786-0, Renal Cancer, Table 2. The experiment is classed as cell-based, human.
Experiment [10] has as its system DU-145. The experiment can be described thus: NCI 60 growth inhibition. The experiment is classed as cell-based, human. Particulars: Homo sapiens; DU-145, Prostate Cancer, Table 2.
In experiment [11] the test system is SK-MEL-28. The experiment can be described thus: NCI 60 growth inhibition. The experiment is classed as cell-based, human. To be noted: Homo sapiens; SK-MEL-28, Melanoma, Table 2.
The test system of experiment [12] is HS 578T. Briefly: NCI 60 growth inhibition. Particulars: Homo sapiens, Breast Cancer, Table 2. The experiment is classed as cell-based, human.
The test system of experiment [13] is EKVX. The experiment can be described thus: NCI 60 growth inhibition. In kind it is cell-based, human. Particulars: Homo sapiens, Non-Small Cell Lung Cancer, Table 2.
For experiment [14], the system named is NCI-H522. The experiment can be described thus: NCI 60 growth inhibition. In kind it is cell-based, human. To be noted: Homo sapiens; NCI-H522, Non-Small Cell Lung Cancer, Table 2.
In experiment [15] the test system is SK-OV-3. The experiment can be described thus: NCI 60 growth inhibition. In kind it is cell-based, human. Particulars: Homo sapiens; SK-OV-3, Ovarian Cancer, Table 2.
In experiment [16] the test system is MDA-MB-468. Briefly: NCI 60 growth inhibition. In kind it is cell-based, human. To be noted: Homo sapiens; MDA-MB-468, Breast Cancer, Table 2.
In experiment [17] the test system is SNB-19. Briefly: NCI 60 growth inhibition. The experiment is classed as cell-based, human. To be noted: Homo sapiens; SNB-19, CNS Cancer, Table 2.
Experiment [18] relates to HCT-15. The experiment can be described thus: NCI 60 growth inhibition. In kind it is cell-based, human. To be noted: Homo sapiens; HCT-15, Colon Cancer, Table 2.
Experiment [19] concerns NCI/ADR-RES. The experiment can be described thus: NCI 60 growth inhibition. The experiment is classed as cell-based, human. To be noted: Homo sapiens, Ovarian Cancer, Table 2.
Experiment [20] relates to NCI-H322M. Briefly: NCI 60 growth inhibition. The experiment is classed as cell-based, human. Particulars: Homo sapiens, Non-Small Cell Lung Cancer, Table 2.
In experiment [21] the test system is HCC-2998. Briefly: NCI 60 growth inhibition. The experiment is classed as cell-based, human. Particulars: Homo sapiens; HCC-2998, Colon Cancer, Table 2.
Experiment [22] has as its system M9 ENL1 cell line. The experiment can be described thus: Anti-leukemic activity, Annexin V/7-AAD flow cytometry. In kind it is cell-based. To be noted: M9-ENL1, 24 h, 24 h of drug exposure; read-out: M9ENL1 (EC50). The procedure: (§1) The newly synthesized triazole derivatives of melampomagnolide B were screened for anti-leukemic activity against M9 ENL1 and primary AML cell lines; the latter were obtained with informed consent from human patients. Evaluations were performed after 24 h of drug exposure using flow cytometric analysis by labeling with Annexin V and 7-aminoactinomycin D (7-AAD) to delineate apoptotic cell populations. In all experiments PTL was included as a reference control.
(In flow cytometry, cells or beads pass a laser one at a time.)

For experiment [23], the system named is primary AML cell line AML2. The experiment is described as above. Particulars: Homo sapiens, 24 h, 24 h of drug exposure; read-out: AML#2 (EC50). The experiment is classed as cell-based, human. The procedure:
as §1

Experiment [24] relates to primary AML cell line AML1. The description is as above. Particulars: Homo sapiens, AML1, 24 h, 24 h of drug exposure; read-out: AML#1 (EC50). In kind it is cell-based, human. The procedure:
as §1

Where [25] appears, read: most of the solid tumor cell lines in the panel, read-out: GI50.

As for `C=C1C(=O)O[C@H]2[C@H]1CC/C(Cn1cc(-c3ccc(OC)cc3)nn1)=C\CC[C@@]1(C)O[C@@H]21` [JVM 4-24, (1aR,7aS,10aS,10bS,E)-5((4-(4-Methoxyphenyl)-1H-1,2,3-triazol-1-yl)methyl)-1a-methyl-8-methylene-2,3,6,7,7a,8,10a,10b-octahydrooxireno[2′,3′:9,10]cyclodeca[1,2-b]furan-9(1aH)-one], the GI50 in experiment [1] (60 cell, several cell lines in the NCI 60 cell panel, read-out: GI50) was 0.2 to 0.99 µM; in experiment [2], 1.35 µM; in [3] it was 1.78 µM; in experiment [4] it was 1.35 µM; in [5] it was 1.16 µM; in experiment [6], 9.35 µM. The GI50 in [7] was 9.45 µM; in [8], 1.23 µM; in [9], 1.24 µM; in experiment [10], 1.11 µM; in [11], 0.82 µM; in experiment [12], 7.42 µM. Moreover, the GI50 in [13] was 2.47 µM; in experiment [14] it was 0.38 µM; in [15], 16.3 µM; in [16], 0.89 µM; in experiment [17], 6.92 µM; in experiment [18], 0.33 µM. Also, the GI50 in experiment [19] is 3.08 µM; in experiment [20], 10.7 µM; in experiment [21] it was 1.98 µM. The concentration for a half-maximal effect (EC50) (usually the concentration giving half of the maximal effect) in experiment [22] worked out at 1.4 µM; in [23], 2.5 µM; in experiment [24], 2 µM.

On to `C=C1C(=O)O[C@H]2[C@H]1CC/C(Cn1cc(-c3cccc(Cl)c3)nn1)=C\CC[C@@]1(C)O[C@@H]21` [JVM 4-25, (1aR,7aS,10aS,10bS,E)-5((4-(3-Chlorophenyl)-1H-1,2,3-triazol-1-yl)methyl)-1a-methyl-8-methylene-2,3,6,7,7a,8,10a,10b-octahydrooxireno[2′,3′:9,10]cyclodeca[1,2-b]furan-9(1aH)-one], for which the GI50 is 0.1 to 0.5 µM in experiment [1] (all the cell lines in the leukemia sub-panel, read-out: GI50); 0.16 to 0.99 µM in experiment [1] (setting [25]); 0.73 µM in experiment [2]; 1.42 µM in experiment [3]; 0.62 µM in experiment [4]; 0.28 µM in experiment [5]. For the same molecule, the GI50 in experiment [6] was determined as 1.98 µM; in experiment [7] it was 1.61 µM; in experiment [8] it was 0.51 µM; in experiment [9], 0.5 µM; in [10], 1 µM; in experiment [11], 0.35 µM. Further, the GI50 stood at 2.26 µM in experiment [12]; 1.57 µM in experiment [13]; 0.29 µM in experiment [14]; 3.67 µM in experiment [15]; 0.56 µM in [16]; 2.4 µM in experiment [17]. The GI50 worked out at 0.19 µM in experiment [18], 2.39 µM in experiment [19], 2.17 µM in [20] and 1.64 µM in experiment [21]. Further, the concentration for a half-maximal effect (EC50) in [23] is 1.7 µM; in [24], 1 µM.

Turning to `C=C1C(=O)O[C@H]2[C@H]1CC/C(Cn1cc(-c3ccc(F)cc3)nn1)=C\CC[C@@]1(C)O[C@@H]21` [JVM 4-26], the GI50 is 0.24 to 0.94 µM in [1] (leukemia cell lines CCRF-CEM, HL-60(TB), K-562, MOLT-4 and SR, read-out: growth inhibition values); 0.18 to 0.94 µM in experiment [1] (setting [25]); 1.17 µM in experiment [2]; 1.47 µM in experiment [3]; 1.26 µM in [4]; 0.9 µM in experiment [5]. Besides, the GI50 in experiment [6] turned out to be 2 µM; in [7] it was 2.02 µM; in [8] it was 0.69 µM; in [9], 1.06 µM; in experiment [10] it was 0.69 µM; in experiment [11], 0.82 µM. Besides, the GI50 stood at 3.68 µM in experiment [12]; 1.49 µM in [13]; 0.25 µM in experiment [14]; 9.78 µM in experiment [15]; 0.42 µM in [16]; 3.39 µM in [17]. Also, the GI50 in experiment [18] was 0.28 µM; in [19] it was 3.05 µM; in experiment [20], 4.39 µM; in experiment [21] it was 1.74 µM. Besides, the EC50 turned out to be 1.9 µM in [23] and 1.1 µM in experiment [24].
